Literature values as cited in patent US20220401378A1, “COMPOSITIONS COMPRISING FUNCTIONAL FRAGRANCES AND CANNABIS-DERIVED COMPOUNDS” (THIS WORKS PRODUCTS LIMITED, priority 2020, published 2022).

Tested on: anxiety

| Compound | effectiveness in reducing anxiety compared with trazodone hydrochloride |
| --- | --- |
| C=C[C@](C)(O)CCC=C(C)C [R-(−)-linalool] | as effective as the trazodone hydrochloride in reducing anxiety |
| C=C[C@@](C)(O)CCC=C(C)C [S-(+)-linalool] | as effective as the trazodone hydrochloride in reducing anxiety |
